The source of these data is publication PMC8865417, “Receptor Interaction Profiles of 4-Alkoxy-3,5-Dimethoxy-Phenethylamines (Mescaline Derivatives) and Related Amphetamines” (Frontiers in Pharmacology, 2022).

In one assay the target is T1, h5-HT2A receptor (Homo sapiens, UniProt P28223).
T1 construct: expressed in transfected cells; host or cells: HEK 293 cells (membrane preparations)
Nature of the assay: Radioligand binding at h5-HT2A receptor ([3H]ketanserin). The following applies: for Selectivity 5-HT2A vs. 5-HT1A / Selectivity 5-HT2A vs. 5-HT2C: binding ratio; for Ki: h5-HT2A Receptor binding Ki ± SD, [3H]ketanserin, mean ± SD.

Another assay concerns the target T2, human TAAR1 (Homo sapiens, UniProt Q96RJ0).
T2 construct: expressed in transfected cells; host or cells: HEK 293 cells
T2 sequence (Q96RJ0 1-339): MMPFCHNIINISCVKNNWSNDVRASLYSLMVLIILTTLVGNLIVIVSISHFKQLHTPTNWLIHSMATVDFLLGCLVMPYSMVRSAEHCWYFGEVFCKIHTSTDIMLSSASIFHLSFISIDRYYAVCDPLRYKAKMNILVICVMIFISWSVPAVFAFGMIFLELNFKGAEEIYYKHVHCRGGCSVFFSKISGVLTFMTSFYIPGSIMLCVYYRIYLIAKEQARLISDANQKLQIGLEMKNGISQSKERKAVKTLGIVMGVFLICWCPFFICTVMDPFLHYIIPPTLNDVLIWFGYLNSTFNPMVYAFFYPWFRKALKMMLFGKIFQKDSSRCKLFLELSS
As to the kind of experiment: Activity at the human TAAR1 (cAMP assay, HEK 293 cells). Type of assay: cell-based. On the procedure: Once 80–90% confluency was reached, the cells were collected by removing the medium, washing with PBS and then adding 5 ml of trypsin/EDTA solution for 5 min at 37°C. Next, 45 ml of medium was added and the entire mixture was transferred into a falcon tube. The tube was then centrifuged at room temperature for 3 min at 900 revolutions per minute (rpm). Next, the supernatant was removed in order to resuspend the remaining cell pellet in fresh medium to 5 × 10^5 cells/ml. Hundred microliter of the cells was transferred into a 96-well plate ([…]; BIOCOAT 6640, Becton Dickinson, Allschwil, Switzerland) and incubated for 20 h at 37°C.
For the cAMP assay, the aspirated medium was replaced with 50 μl PBS without Ca^2+ and Mg^2+ ions. Using snap inversion, the PBS was extracted and the plate was gently tapped against tissue. Next, 90 μl of Krebs-Ringer Bicarbonate buffer (KRB, Sigma-Aldrich) containing 1 mM IBMX was added and incubated for 60 min at 37°C and 5% CO2/95% air. Each test compound was examined in duplicate in a concentration range between 300 pM and 30 μM. A standard curve with a range of cAMP concentrations (0.13 nM–10 μM) was created for each 96-well plate. Each experiment was accompanied with a reference plate that included RO5256390, β-phenylethylamine and p-tyramine. The cells were exposed to either 30 μl of compound solution, 30 μl of β-phenylethylamine (as maximal response), or a basal control in PBS (containing 1 mM IBMX) for 40 min at 37°C. Next, under forceful shaking using black lids, the cells were exposed to 50 μl of 3× detection mix solution (composed of Ru-cAMP Alexa700 anti-cAMP antibody and lysis buffer) for 120 min at room temperature. Using the NanoScan reader (Innovate Optische Messtechnik, Berlin, Germany; 456 nm excitation wavelength; 630 and 700 nm emission wavelengths), the fluorescence was examined and the FRET signal was determined using the following equation; FRET (700 nm)- P × FRET (630 nm), where P = Ru (700 nm)/Ru (630 nm).
For orientation: Changes in cAMP serve as a functional read-out for many G protein-coupled receptors.

Another assay addresses T3, rat TAAR1 (Rattus norvegicus, UniProt Q923Y9).
T3 construct: expressed in transfected cells; host or cells: HEK 293 cells (membrane preparations)
As to the kind of experiment: Radioligand binding at rat TAAR1 ([3H]RO5166017).

Another assay addresses T4, hNET (Homo sapiens, UniProt P23975).
T4 construct: expressed in transfected cells; host or cells: HEK 293 cells (membrane preparations)
Nature of the assay: Radioligand binding at hNET (N-methyl-[3H]nisoxetine).

Another assay relates to head twitch response. On the set-up: method as in Halberstadt et al. (2019). The following applies: ref Halberstadt et al. (2019); cited from earlier work.
For the next assay, the system named is humans. The following applies: ref Trachsel 2012; cited from earlier work.

T3 sequence (Q923Y9 whole entry): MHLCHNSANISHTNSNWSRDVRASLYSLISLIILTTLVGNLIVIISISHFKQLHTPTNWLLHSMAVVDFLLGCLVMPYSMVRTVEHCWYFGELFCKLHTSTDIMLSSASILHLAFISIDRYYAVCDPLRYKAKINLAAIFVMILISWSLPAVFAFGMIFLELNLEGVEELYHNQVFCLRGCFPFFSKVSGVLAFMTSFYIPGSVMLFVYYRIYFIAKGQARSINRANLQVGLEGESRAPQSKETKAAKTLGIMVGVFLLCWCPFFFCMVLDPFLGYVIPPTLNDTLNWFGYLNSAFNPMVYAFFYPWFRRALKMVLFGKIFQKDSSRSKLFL
T4 sequence (P23975 whole entry): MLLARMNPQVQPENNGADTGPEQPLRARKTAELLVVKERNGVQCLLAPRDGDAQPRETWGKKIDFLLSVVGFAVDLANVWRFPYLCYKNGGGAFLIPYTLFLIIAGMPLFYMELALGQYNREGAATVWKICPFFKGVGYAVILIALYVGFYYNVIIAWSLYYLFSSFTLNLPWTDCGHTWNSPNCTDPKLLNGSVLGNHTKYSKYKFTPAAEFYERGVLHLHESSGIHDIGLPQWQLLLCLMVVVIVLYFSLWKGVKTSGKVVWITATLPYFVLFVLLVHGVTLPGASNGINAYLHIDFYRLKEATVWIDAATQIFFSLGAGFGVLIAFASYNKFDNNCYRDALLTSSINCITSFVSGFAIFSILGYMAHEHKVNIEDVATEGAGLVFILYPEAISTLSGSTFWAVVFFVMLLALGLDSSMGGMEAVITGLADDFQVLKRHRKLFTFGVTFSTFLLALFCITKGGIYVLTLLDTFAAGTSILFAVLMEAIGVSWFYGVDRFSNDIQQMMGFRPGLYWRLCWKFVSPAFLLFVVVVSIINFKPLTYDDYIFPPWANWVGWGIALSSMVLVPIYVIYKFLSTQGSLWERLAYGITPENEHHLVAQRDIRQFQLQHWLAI
T1 sequence (P28223 whole entry): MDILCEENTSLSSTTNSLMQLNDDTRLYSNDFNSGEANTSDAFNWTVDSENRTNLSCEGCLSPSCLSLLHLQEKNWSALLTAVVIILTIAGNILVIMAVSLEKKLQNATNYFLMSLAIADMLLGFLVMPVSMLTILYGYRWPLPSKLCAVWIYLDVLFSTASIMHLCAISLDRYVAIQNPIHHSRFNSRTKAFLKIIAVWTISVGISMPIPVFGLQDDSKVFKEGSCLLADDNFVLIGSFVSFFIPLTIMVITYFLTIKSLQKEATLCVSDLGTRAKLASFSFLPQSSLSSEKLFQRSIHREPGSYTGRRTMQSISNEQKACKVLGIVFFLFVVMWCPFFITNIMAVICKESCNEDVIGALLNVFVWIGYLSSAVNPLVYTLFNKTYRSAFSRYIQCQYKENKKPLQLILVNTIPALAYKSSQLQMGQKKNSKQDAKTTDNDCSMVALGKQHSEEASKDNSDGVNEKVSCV

Broadly, the Ki is the equilibrium dissociation constant of an inhibitor or competing ligand from its target. Read a high Ki as lower affinity. As usually defined, the EC50 is the concentration at which the effect is half-maximal. A higher EC50 goes with a less potent agent. Take `COc1cc(CCN)cc(OC)c1OCCC(F)(F)F` [compound 26, 3,5-dimethoxy-4-(3,3,3-trifluoropropoxy)phenethylamine]: on h5-HT2A receptor, the “Selectivity 5-HT2A vs. 5-HT1A” value is given as more than 1, the “Selectivity 5-HT2A vs. 5-HT2C” value worked out at 1.1 and the inhibition constant (Ki) is 5 µM. Also, the half-maximal effective concentration (EC50) on human TAAR1 was more than 10 µM. On rat TAAR1, this compound registered a Ki of 0.91 ± 0.09 µM. At hNET, this compound had a Ki of more than 9.7 µM.
`CCCOc1c(OC)cc(CC(C)N)cc1OC` (stereo not shown) [compound 28, 3,5-dimethoxy-4-propyloxyamphetamine]: on h5-HT2A receptor, the “Selectivity 5-HT2A vs. 5-HT2C” value came out at 2.0. The Ki at h5-HT2A receptor was 1 µM; at rat TAAR1, 3.4 µM; at hNET it was more than 9.7 µM. Besides, on h5-HT2A receptor (ratio of Ki values), the “Increase in 5-HT2A receptor affinity compared with TMA (6)” value is not below 10 fold. Further, the half-maximal effective concentration (EC50) on human TAAR1 is more than 10 µM. Further, the Head twitch response entry in the assay on head twitch response is “induced a head twitch response with almost identical potency”.
As to `COc1cc(CC(C)N)cc(OC)c1OC(F)F` (stereo not shown) [compound 14, 4-difluoromethoxy-3,5-dimethoxyamphetamine], the “Selectivity 5-HT2A vs. 5-HT2C” value at h5-HT2A receptor is recorded as 2.6. Further, the inhibition constant Ki was 1.4 µM on h5-HT2A receptor, 0.38 ± 0.02 µM on rat TAAR1 and more than 9.7 µM at hNET. Further, at human TAAR1, the EC50 was more than 10 µM.
`COc1cc(CCN)cc(OC)c1OCC(F)(F)F` [compound 18, 3,5-dimethoxy-4-(2,2,2-trifluoroethoxy)phenethylamine]: the “Selectivity 5-HT2A vs. 5-HT2C” value on h5-HT2A receptor came to 0.9. The inhibitory constant (Ki) was 1.3 µM on h5-HT2A receptor, 1.2 µM on rat TAAR1 and more than 9.7 µM on hNET. At human TAAR1, this compound came in with an EC50 of more than 10 µM.
`COc1cc(CCN)cc(OC)c1OC(CF)CF` [compound 23, 3,5-dimethoxy-4-(1,3-difluoroprop-2-yloxy)phenethylamine]: the Ki is more than 12 µM at h5-HT2A receptor, more than 4.7 µM at rat TAAR1 and more than 9.7 µM on hNET. On human TAAR1, this compound had a concentration for a half-maximal effect (EC50) of more than 10 µM.
`COc1cc(CCN)cc(OC)c1OC(F)(F)F` [compound 13, 4-trifluoromethoxy-3,5-dimethoxyphenethylamine]: on h5-HT2A receptor, the “Selectivity 5-HT2A vs. 5-HT1A” value was 7.9, the “Selectivity 5-HT2A vs. 5-HT2C” value was 1.0 and the Ki turned out to be 0.28 ± 0.1 µM. The “Higher affinity at the 5-HT2A receptor compared to mescaline (5)” value (from here on “Higher affinity … compared to mescaline (5)”) on h5-HT2A receptor (ratio of Ki values) was 17- to 63 fold. The 50% effective concentration (EC50) at human TAAR1 is more than 10 µM. The compound further gave a Ki at rat TAAR1 of 0.17 ± 0.01 µM. The compound also yielded an inhibition constant Ki on hNET of more than 9.7 µM. Besides, the “Increase in human potency compared to mescaline (5)” value in the assay with humans is more than 9 fold.
Consider `COc1cc(CCN)cc(OC)c1OCc1ccccc1` [compound 33, 4-benzyloxy-3,5-dimethoxyphenethylamine], for which, on h5-HT2A receptor, the “Selectivity 5-HT2A vs. 5-HT1A” value was 29; the “Selectivity 5-HT2A vs. 5-HT2C” value is 2.9; the affinity, expressed as Ki, was 0.15 ± 0.01 µM. Moreover, at h5-HT2A receptor (ratio of Ki values), the “Higher affinity … compared to mescaline (5)” value is recorded as 17- to 63 fold. Further, the EC50 on human TAAR1 was more than 10 µM. At rat TAAR1, this compound yielded an inhibitory constant (Ki) of 0.11 ± 0.01 µM. Further, the inhibition constant Ki at hNET is more than 9.7 µM.
For the compound `COc1cc(CCN)cc(OC)c1OCCCF` [compound 25, 3,5-dimethoxy-4-(3-fluoropropoxy)-phenethylamine], on h5-HT2A receptor, the “Selectivity 5-HT2A vs. 5-HT1A” value is less than 1, the “Selectivity 5-HT2A vs. 5-HT2C” value is 0.6 and the Ki was determined as 9.3 µM. The same compound showed a 50% effective concentration (EC50) at human TAAR1 of more than 10 µM. Also, on rat TAAR1, the affinity corresponds to a Ki of 1.7 µM. This compound also came in with a Ki on hNET of more than 9.7 µM.
On to `C=C(C)COc1c(OC)cc(CCN)cc1OC` [compound 32, 3,5-dimethoxy-4-methallyloxyphenethylamine], for which, at h5-HT2A receptor, the “Selectivity 5-HT2A vs. 5-HT1A” value was determined as 9.3, the “Selectivity 5-HT2A vs. 5-HT2C” value is given as 0.9 and the Ki amounted to 0.55 ± 0.19 µM. For the same compound, the “Higher affinity … compared to mescaline (5)” value on h5-HT2A receptor (ratio of Ki values) is given as 17- to 63 fold. At human TAAR1, the EC50 was more than 10 µM. Moreover, the Ki at rat TAAR1 amounted to 1 µM. The Ki at hNET was more than 9.7 µM.
For the compound `COc1cc(CCN)cc(OC)c1OC1CC1` [compound 29, 4-cyclopropyloxy-3,5-dimethoxyphenethylamine], on h5-HT2A receptor, the “Selectivity 5-HT2A vs. 5-HT1A” value is reported as 0.9, the “Selectivity 5-HT2A vs. 5-HT2C” value was 1.3 and the inhibitory constant (Ki) turned out to be 4.3 µM. This compound also registered a concentration for a half-maximal effect (EC50) on human TAAR1 of more than 10 µM. The same compound registered an inhibition constant (Ki) on rat TAAR1 of 1.2 µM. In addition, the inhibition constant Ki on hNET is more than 9.7 µM.
